Data as given in ChEMBL document CHEMBL5380866, “Discovery of Selective P2Y6R Antagonists with High Affinity and In Vivo Efficacy for Inflammatory Disease Therapy” (J Med Chem, 2023).
The source made the active and inactive calls. The rule behind the calls is not given here.

Columns and labels:
[1] = MRT in Sprague-Dawley rat at 2 mg/kg, iv measured at 3 to 480 mins by LC-MS/MS analysis; assay type: ADME, organism-based; conditions: in vivo, time 3-480 min
Mus musculus [2] = experiment: Anti-inflammatory activity against LPS-induced acute lung injury C57BL/6J mouse model assessed as decrease in TNF-alpha secretion in BALF 1 to 5 mg/kg, IT(Intratracheal) pretreated with LPS followed by compound addition and measured after 12 hrs ELISA analysis; assay type: functional, organism-based; conditions: dose 1-5 mg/kg
Mus musculus [3] = experiment: Anti-inflammatory activity against LPS-induced acute lung injury C57BL/6J mouse model assessed as restoration of lung structure at 1 to 5 mg/kg, IT(Intratracheal) pretreated with LPS followed by compound addition and measured after 12 hrs by H and E staining based microscopic analysis; assay type: functional, organism-based; conditions: dose 1-5 mg/kg
[4] = Clearance in Sprague-Dawley rat at 2 mg/kg, iv measured at 3 to 480 mins by LC-MS/MS analysis; assay type: ADME, organism-based; conditions: in vivo, time 3-480 min
[5] = Volume of distribution in Sprague-Dawley rat at 2 mg/kg, iv measured at 3 to 480 mins by LC-MS/MS analysis; assay type: ADME, organism-based; conditions: in vivo, time 3-480 min
Mus musculus [6] = experiment: Anti-inflammatory activity against LPS-induced acute lung injury C57BL/6J mouse model assessed as reversal of increase in MyD88 expression level 1 to 5 mg/kg, IT(Intratracheal) pretreated with LPS followed by compound addition and measured after 12 hrs by Western blot analysis; assay type: functional, organism-based; conditions: dose 1-5 mg/kg
Mus musculus [7] = experiment: Anti-inflammatory activity against DSS-induced acute ulcerative colitis intrarectal dosed C57BL/6J mouse model assessed as reduction in inflammatory infiltration administered daily from 1 to 7 days by H and E staining based microscopic analysis; assay type: functional, organism-based; conditions: route rec, time 1-7 day
Mus musculus [8] = experiment: Anti-inflammatory activity against LPS-induced acute lung injury C57BL/6J mouse model assessed as decrease in IL-1beta secretion in BALF 1 to 5 mg/kg, IT(Intratracheal) pretreated with LPS followed by compound addition and measured after 12 hrs ELISA analysis; assay type: functional, organism-based; conditions: dose 1-5 mg/kg
[9] = AUC (0 to t) in Sprague-Dawley rat at 2 mg/kg, iv measured at 3 to 480 mins by LC-MS/MS analysis; assay type: ADME, organism-based; set-up: dose 2 mg/kg, time 3-480 min, route iv; conditions: in vivo
Mus musculus [10] = experiment: Anti-inflammatory activity against DSS-induced acute ulcerative colitis intrarectal dosed C57BL/6J mouse model assessed as […] Occludin expression at high dose measured after 8 hrs by Western blot analysis; assay type: functional, organism-based; conditions: route rec
Mus musculus [11] = experiment: Anti-inflammatory activity against LPS-induced acute lung injury C57BL/6J mouse model assessed as reduction in pulmonary edema administered IT(Intratracheal) pretreated with LPS followed by compound addition and measured after 12 hrs; assay type: functional, organism-based; conditions: dose 1-5 mg/kg
Mus musculus [12] = experiment: Anti-inflammatory activity against LPS-induced acute lung injury C57BL/6J mouse model assessed as reversal of increase in TLR4 expression level 1 to 5 mg/kg, IT(Intratracheal) pretreated with LPS followed by compound addition and measured after 12 hrs by Western blot analysis; assay type: functional, organism-based; conditions: dose 1-5 mg/kg
Mus musculus [13] = experiment: Anti-inflammatory activity against DSS-induced acute ulcerative colitis intrarectal dosed C57BL/6J mouse model assessed as […] length administered daily from 1 to 7 days; assay type: functional, organism-based; conditions: route rec, time 1-7 day
P2Y purinoceptor 6 [14] = target: T1, P2Y purinoceptor 6 (Homo sapiens, UniProt Q15077); experiment: Binding affinity to human recombinant P2Y6R assessed as dissociation constant by grating-coupled interferometry analysis
Mus musculus [15] = experiment: Inhibition of NLRP3 inflammasome activation in DSS-induced acute ulcerative colitis intrarectal dosed C57BL/6J mouse model assessed as decrease in colon caspase-1 expression measured after 8 hrs by Western blot analysis; assay type: functional, organism-based; conditions: route rec
Mus musculus [16] = experiment: Anti-inflammatory activity against DSS-induced acute ulcerative colitis intrarectal dosed C57BL/6J mouse model assessed as decrease in crypt necrosis administered daily from 1 to 7 days by H and E staining based microscopic analysis; assay type: functional, organism-based; conditions: route rec, time 1-7 day
[17] = Oral bioavailability in Sprague-Dawley rat at 20 mg/kg measured at 10 to 720 mins by LC-MS/MS analysis; assay type: ADME, organism-based; conditions: in vivo, time 10-720 min
Mus musculus [18] = experiment: Anti-inflammatory activity against DSS-induced acute ulcerative colitis intrarectal dosed C57BL/6J mouse model assessed as decrease in spleen index administered daily from 1 to 7 days; assay type: functional, organism-based; conditions: route rec, time 1-7 day
Mus musculus [19] = experiment: Anti-inflammatory activity against LPS-induced acute lung injury C57BL/6J mouse model assessed as reduction in inflammatory infiltration in BALF administered IT(Intratracheal) pretreated with LPS followed by compound addition and measured after 12 hrs; assay type: functional, organism-based; conditions: dose 1-5 mg/kg
Mus musculus [20] = experiment: Anti-inflammatory activity against LPS-induced acute lung injury C57BL/6J mouse model assessed as decrease in lung IL-1beta mRNA expression level 1 to 5 mg/kg, IT(Intratracheal) pretreated with LPS followed by compound addition and measured after 12 hrs RT-PCR analysis; assay type: functional, organism-based; conditions: dose 1-5 mg/kg
[21] = Cmax in Sprague-Dawley rat at 2 mg/kg, iv measured at 3 to 480 mins by LC-MS/MS analysis; assay type: ADME, organism-based; set-up: time upper 480 min, time lower 3 min, dose 2 mg/kg, route iv; conditions: in vivo
HT-29 = experiment: Cytotoxicity against human HT-29 cells assessed as inhibition of cell growth at below 10 uM incubated for 12 to 24 hrs by CCK-8 assay; assay type: functional, cell-based; conditions: time 12-24 hrs
A549 = experiment: Cytotoxicity against human A549 cells assessed as inhibition of cell growth at below 10 uM incubated for 12 hrs by CCK-8 assay; assay type: functional, cell-based
[22] = AUC (0 to t) in Sprague-Dawley rat at 20 mg/kg, po measured at 10 to 720 mins by LC-MS/MS analysis; assay type: ADME, organism-based; set-up: time upper 720 min, time lower 10 min, dose 20 mg/kg, route po; conditions: in vivo
Mus musculus [23] = experiment: Anti-inflammatory activity against LPS-induced acute lung injury C57BL/6J mouse model assessed as decrease in lung TNF-alpha mRNA expression level 1 to 5 mg/kg, IT(Intratracheal) pretreated with LPS followed by compound addition and measured after 12 hrs RT-PCR analysis; assay type: functional, organism-based; conditions: dose 1-5 mg/kg
Mus musculus [24] = experiment: Anti-inflammatory activity against DSS-induced acute ulcerative colitis intrarectal dosed C57BL/6J mouse model assessed as decrease in mucosal damage administered daily from 1 to 7 days by H and E staining based microscopic analysis; assay type: functional, organism-based; conditions: route rec, time 1-7 day
[25] = Half life in Sprague-Dawley rat at 2 mg/kg, iv measured at 3 to 480 mins by LC-MS/MS analysis; assay type: ADME, organism-based; conditions: in vivo, time 3-480 min
Mus musculus [26] = experiment: Anti-inflammatory activity against LPS-induced acute lung injury C57BL/6J mouse model assessed as reversal of increase in p-38 phosphorylation level 1 to 5 mg/kg, IT(Intratracheal) pretreated with LPS followed by compound addition and measured after 12 hrs by Western blot analysis; assay type: functional, organism-based; conditions: dose 1-5 mg/kg
[27] = Tmax in Sprague-Dawley rat at 20 mg/kg, po measured at 10 to 720 mins by LC-MS/MS analysis; assay type: ADME, organism-based; conditions: in vivo, time 10-720 min
Mus musculus [28] = experiment: Anti-inflammatory activity against LPS-induced acute lung injury C57BL/6J mouse model assessed as reversal of increase in ERK-phosphorylation level 1 to 5 mg/kg, IT(Intratracheal) pretreated with LPS followed by compound addition and measured after 12 hrs by Western blot analysis; assay type: functional, organism-based; conditions: dose 1-5 mg/kg
[29] = Cmax in Sprague-Dawley rat at 20 mg/kg, po measured at 10 to 720 mins by LC-MS/MS analysis; assay type: ADME, organism-based; set-up: time upper 720 min, dose 20 mg/kg, time lower 10 min, route po; conditions: in vivo
Mus musculus [30] = experiment: Anti-inflammatory activity against DSS-induced acute ulcerative colitis intrarectal dosed C57BL/6J mouse model assessed as […] ZO-1 expression at high dose measured after 8 hrs by Western blot analysis; assay type: functional, organism-based; conditions: route rec
Mus musculus [31] = experiment: Anti-inflammatory activity against LPS-induced acute lung injury C57BL/6J mouse model assessed as reduction in inflammatory infiltration in lung at 1 to 5 mg/kg, IT(Intratracheal) pretreated with LPS followed by compound addition and measured after 12 hrs by H and E staining based microscopic analysis; assay type: functional, organism-based; conditions: dose 1-5 mg/kg
Mus musculus [32] = experiment: Anti-inflammatory activity against DSS-induced acute ulcerative colitis intrarectal dosed C57BL/6J mouse model assessed as […] claudin-1 expression at high dose measured after 8 hrs by Western blot analysis; assay type: functional, organism-based; conditions: route rec
[33] = Half life in Sprague-Dawley rat at 20 mg/kg, po measured at 10 to 720 mins by LC-MS/MS analysis; assay type: ADME, organism-based; conditions: in vivo, time 10-720 min
Mus musculus [34] = experiment: Inhibition of NLRP3 inflammasome activation in DSS-induced acute ulcerative colitis intrarectal dosed C57BL/6J mouse model assessed as decrease in colon ASC expression measured after 8 hrs by Western blot analysis; assay type: functional, organism-based; conditions: route rec
Mus musculus [35] = experiment: Inhibition of NLRP3 inflammasome activation in DSS-induced acute ulcerative colitis intrarectal dosed C57BL/6J mouse model assessed as decrease in colon NLRP3 expression measured after 8 hrs by Western blot analysis; assay type: functional, organism-based; conditions: route rec
Mus musculus [36] = experiment: Anti-inflammatory activity against DSS-induced acute ulcerative colitis intrarectal dosed C57BL/6J mouse model assessed as decrease in goblet cells administered daily from 1 to 7 days by H and E staining based microscopic analysis; assay type: functional, organism-based; conditions: route rec, time 1-7 day
P2Y purinoceptor 6 [37] = target: T1, P2Y purinoceptor 6; experiment: Antagonist activity at human P2Y6R expressed in HEK293 cells assessed as inhibition of UDP-induced IP3 production preincubated for 0.5 hrs followed by UDP stimulation and measured after 12 hrs by ELISA analysis; assay type: functional, cell-based

T1 sequence (Q15077 whole entry): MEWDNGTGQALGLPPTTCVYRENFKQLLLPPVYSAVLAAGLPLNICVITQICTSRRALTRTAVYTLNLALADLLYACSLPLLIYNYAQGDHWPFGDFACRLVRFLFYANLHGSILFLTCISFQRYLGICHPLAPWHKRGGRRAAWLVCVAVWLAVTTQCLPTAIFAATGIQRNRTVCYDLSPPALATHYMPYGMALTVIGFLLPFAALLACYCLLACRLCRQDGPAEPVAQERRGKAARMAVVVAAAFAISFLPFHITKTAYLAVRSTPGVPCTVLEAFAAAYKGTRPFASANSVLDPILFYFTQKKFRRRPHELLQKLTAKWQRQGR

## CC(C)(C)n1nc(-c2nc3cc(Cl)ccc3[nH]2)cc1-c1ccco1
[1]
  MRT: 0.575 h
Mus musculus [2]
  Activity: Active
Mus musculus [3]
  Activity: Active
[4]
  clearance: 130 mL/min/kg
[5]
  Vd: 20.1 L/kg
Mus musculus [6]
  Activity: Active
Mus musculus [7]
  Activity: Active
Mus musculus [8]
  Activity: Active
[9]
  AUC(0-t): 261 ng·h/mL
Mus musculus [10]
  Activity: Active
Mus musculus [11]
  Activity: Dose-Dependent Effect
Mus musculus [12]
  Activity: Active
Mus musculus [13]
  Activity: Dose-Dependent Effect
P2Y purinoceptor 6 [14]
  Kd: 3470 nM
Mus musculus [15]
  inhibition: Active
Mus musculus [16]
  Activity: Active
[17]
  bioavailability: 15.9%
Mus musculus [18]
  Activity: Dose-Dependent Effect
Mus musculus [19]
  Activity: Dose-Dependent Effect
Mus musculus [20]
  Activity: Active
[21]
  Cmax: 1050 ng/mL
HT-29
  inhibition: inactive
A549
  inhibition: inactive
[22]
  AUC(0-t): 415 ng·h/mL
Mus musculus [23]
  Activity: Active
Mus musculus [24]
  Activity: Active
[25]
  half-life: 1.81 h
Mus musculus [26]
  Activity: Active
[27]
  Tmax: 2 h
Mus musculus [28]
  Activity: Active
[29]
  Cmax: 53.7 ng/mL
Mus musculus [30]
  Activity: Active
Mus musculus [31]
  Activity: Active
Mus musculus [32]
  Activity: Active
[33]
  half-life: 6.46 h
Mus musculus [34]
  inhibition: Active
Mus musculus [35]
  inhibition: Active
Mus musculus [36]
  Activity: Active
P2Y purinoceptor 6 [37]
  IC50: 5.91 nM
